Reference: US9951063B2, “8-(piperazin-1-yl)-1,2,3,4-tetrahydro-isoquinoline derivatives” (IDORSIA PHARMACEUTICALS LTD, priority 2014, dated 2018)

Biological target: human CXCR3A (Homo sapiens (Human), UniProt P49682)
Assay: FLIPR assay (inhibition of CXCL10-induced calcium signal)
Assay type: cell-based
Conditions: engineered CHO-K1 cells expressing human CXCR3A coupled to Galpha(16); Fluo-4-AM; CXCL10 agonist 20 nM; mean values where determined several times
Method in brief: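 CHO-K1 cells expressing human CXCR3A coupled to Gα16 were loaded with Fluo-4-AM for 1 h in HBSS/20 mM Hepes pH 7.4 with probenecid. Compound was added, then CXCL10 (20 nM as dispensed). Baseline-subtracted peak fluorescence gave inhibition curves and IC50, averaged over repeats.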

Sequence of human CXCR3A (P49682 whole entry): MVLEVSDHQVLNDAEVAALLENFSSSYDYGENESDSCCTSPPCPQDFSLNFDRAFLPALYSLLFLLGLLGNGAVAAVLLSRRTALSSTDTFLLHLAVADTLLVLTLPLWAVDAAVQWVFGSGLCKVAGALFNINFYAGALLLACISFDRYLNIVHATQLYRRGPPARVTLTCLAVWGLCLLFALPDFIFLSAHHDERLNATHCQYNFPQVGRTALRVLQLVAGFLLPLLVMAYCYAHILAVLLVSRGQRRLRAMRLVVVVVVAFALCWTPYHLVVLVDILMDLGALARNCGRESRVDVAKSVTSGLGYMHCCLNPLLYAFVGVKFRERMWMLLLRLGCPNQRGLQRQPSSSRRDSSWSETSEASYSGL

IC50 [nM]	SMILES
5.42	Cc1nc(C)n(CC(=O)N2CCN(c3ccc(F)c4c3CN(c3cnc(C5CC5)nc3)CC4)C[C@H]2C)n1 [Example 133, 1-{(R)-4-[2-(2-Cyclopropyl-pyrimidin-5-yl)-5-fluoro-1,2,3,4-tetrahydro-isoquinolin-8-yl]-2-methyl-piperazin-1-yl}-2-(3,5-dimethyl-[1,2,4]triazol-1-yl)-ethanone]
33.2	Cc1nc(C)n(CC(=O)N2CCN(c3cccc4c3CN(C(=O)OCc3ccccc3)CC4)C[C@H]2C)n1 [Example 136, 8-{(R)-4-[2-(3,5-Dimethyl-[1,2,4]triazol-1-yl)-acetyl]-3-methyl-piperazin-1-yl}-3,4-dihydro-1H-isoquinoline-2-carboxylic acid benzyl ester]
465	C[C@@H]1CN(c2cccc3c2CN(Cc2ccc(Cl)cc2)CC3)CCN1C(=O)Cn1cnc2cccnc21 [Example 143, 1-{(R)-4-[2-(4-Chloro-benzyl)-1,2,3,4-tetrahydro-isoquinolin-8-yl]-2-methyl-piperazin-1-yl}-2-imidazo[4,5-b]pyridin-3-yl-ethanone]
85.7	C[C@@H]1CN(c2ccc(Br)c3c2CN(C(=O)OCc2ccccc2)CC3)CCN1C(=O)Cn1cnc2cccnc21 [Example 144, 5-Bromo-8-[(R)-4-(2-imidazo[4,5-b]pyridin-3-yl-acetyl)-3-methyl-piperazin-1-yl]-3,4-dihydro-1H-isoquinoline-2-carboxylic acid benzyl ester]
15.6	C[C@@H]1CN(c2ccc(C#N)c3c2CN(C(=O)OCc2ccccc2)CC3)CCN1C(=O)Cn1cnc2cccnc21 [Example 146, 5-Cyano-8-[(R)-4-(2-imidazo[4,5-b]pyridin-3-yl-acetyl)-3-methyl-piperazin-1-yl]-3,4-dihydro-1H-isoquinoline-2-carboxylic acid benzyl ester]
8.58	Cc1nc(C)n(CC(=O)N2CCN(c3cc(F)c(F)c4c3CN(c3cnc(C(F)(F)F)nc3)CC4)C[C@H]2C)n1 [Example 147, 1-{(R)-4-[5,6-Difluoro-2-(2-trifluoromethyl-pyrimidin-5-yl)-1,2,3,4-tetrahydro-isoquinolin-8-yl]-2-methyl-piperazin-1-yl}-2-(3,5-dimethyl-[1,2,4]triazol-1-yl)-ethanone]

The remaining lines, values behind:

SMILES	IC50 [nM]
CCOc1ncc(N2CCc3c(F)ccc(N4CCN(C(=O)Cn5nc(C)nc5C)[C@H](C)C4)c3C2)cn1 [Example 131, 2-(3,5-Dimethyl-[1,2,4]triazol-1-yl)-1-{(R)-4-[2-(2-ethoxy-pyrimidin-5-yl)-5-fluoro-1,2,3,4-tetrahydro-isoquinolin-8-yl]-2-methyl-piperazin-1-yl}-ethanone]	24.3
Cc1nc(C)n(CC(=O)N2CCN(c3ccc(F)c4c3CN(c3cnc(C(F)(F)F)nc3)CC4)C[C@H]2C)n1 [Example 132, 2-(3,5-Dimethyl-[1,2,4]triazol-1-yl)-1-{(R)-4-[5-fluoro-2-(2-trifluoromethyl-pyrimidin-5-yl)-1,2,3,4-tetrahydro-isoquinolin-8-yl]-2-methyl-piperazin-1-yl}-ethanone]	58.9
CCOc1ncc(N2CCc3cc(C(F)(F)F)cc(N4CCN(C(=O)Cn5cnc6cccnc65)[C@H](C)C4)c3C2)cn1 [Example 134, 1-{(R)-4-[2-(2-Ethoxy-pyrimidin-5-yl)-6-trifluoromethyl-1,2,3,4-tetrahydro-isoquinolin-8-yl]-2-methyl-piperazin-1-yl}-2-imidazo[4,5-b]pyridin-3-yl-ethanone]	52.1
C[C@@H]1CN(c2cccc3c2CN(C(=O)OCc2ccccc2)CC3)CCN1C(=O)Cn1cccn1 [Example 135, 8-[(R)-3-Methyl-4-(2-pyrazol-1-yl-acetyl)-piperazin-1-yl]-3,4-dihydro-1H-isoquinoline-2-carboxylic acid benzyl ester]	116
O=C(Cn1cnc2cccnc21)N1CCN(c2cccc3c2CN(C(=O)OCc2ccccc2)CC3)CC1 [Example 137, 8-[4-(2-Imidazo[4,5-b]pyridin-3-yl-acetyl)-piperazin-1-yl]-3,4-dihydro-1H-isoquinoline-2-carboxylic acid benzyl ester]	9.1
O=C(Cn1ccc2cccnc21)N1CCN(c2cccc3c2CN(C(=O)OCc2ccccc2)CC3)CC1 [Example 138, 8-[4-(2-Pyrrolo[2,3-b]pyridin-1-yl-acetyl)-piperazin-1-yl]-3,4-dihydro-1H-isoquinoline-2-carboxylic acid benzyl ester]	12.4
Cn1c(=O)n(CC(=O)N2CCN(c3cccc4c3CN(C(=O)OCc3ccccc3)CC4)CC2)c2ccccc21 [Example 139, 8-{4-[2-(3-Methyl-2-oxo-2,3-dihydro-benzoimidazol-1-yl)-acetyl]-piperazin-1-yl}-3,4-dihydro-1H-isoquinoline-2-carboxylic acid benzyl ester]	21.7
Cn1c(=O)n(CC(=O)N2CCN(c3cccc4c3CN(C(=O)c3ccccc3)CC4)CC2)c2ccccc21 [Example 140, 1-{2-[4-(2-Benzoyl-1,2,3,4-tetrahydro-isoquinolin-8-yl)-piperazin-1-yl]-2-oxo-ethyl}-3-methyl-1,3-dihydro-benzoimidazol-2-one]	51.2
Cn1c(=O)n(CC(=O)N2CCN(c3cccc4c3CN(C(=O)Cc3ccccc3)CC4)CC2)c2ccccc21 [Example 141, 1-Methyl-3-{2-oxo-2-[4-(2-phenylacetyl-1,2,3,4-tetrahydro-isoquinolin-8-yl)-piperazin-1-yl]-ethyl}-1,3-dihydro-benzoimidazol-2-one]	190
O=C(Cn1cnc2cccnc21)N1CCN(c2cccc3c2CN(S(=O)(=O)Cc2ccccc2)CC3)CC1 [Example 142, 2-Imidazo[4,5-b]pyridin-3-yl-1-[4-(2-phenylmethanesulfonyl-1,2,3,4-tetrahydro-isoquinolin-8-yl)-piperazin-1-yl]-ethanone]	65.4
C[C@@H]1CN(c2ccc(C(F)(F)F)c3c2CN(C(=O)OCc2ccccc2)CC3)CCN1C(=O)Cn1cnc2cccnc21 [Example 145, 8-[(R)-4-(2-Imidazo[4,5-b]pyridin-3-yl-acetyl)-3-methyl-piperazin-1-yl]-5-trifluoromethyl-3,4-dihydro-1H-isoquinoline-2-carboxylic acid benzyl ester]	25.6
